Counter-ions that a name gives are not always drawn. Like-named read-outs stand apart in the source and are kept apart here.

Broadly, the EC50 is the concentration giving half of the maximal effect. Usually IC50 stands for the midpoint of a concentration-inhibition curve.

One test concerns the target PHD2 (Homo sapiens, UniProt Q9GZT9). The test can be described thus: Competition-based NMR reporter ligand displacement assay ([13C]-2OG / [13C]-CODD). Format: binding. The settings on record: 50 μM apo-PHD2, 400 μM Zn(II), 400 μM competitor. The procedure: For 2OG displacement assays, selective ^1H-^13C 1D-HSQC experiments were conducted at 700 MHz using a Bruker Avance III spectrometer equipped with an inverse TCI cryoprobe optimized for ^1H observation. The CLIP-HSQC sequence was used (without ^13C decoupling). Typical experimental parameters were as follows: acquisition time 0.58 s, relaxation delay 2 s, number of transients 256−1600. The 1JCH was set to 160 Hz. For the selective version of the experiment, a 6.8 ms Q3 180 degree pulse was used, and selective irradiation was applied at the appropriate [^13C] chemical shift. Three millimeter MATCH tubes with a 160 μL final sample volume were used. Solutions were buffered using Tris-D11 50 mM (pH 7.5) dissolved in 90% H2O and 10% D2O. Assays were conducted at 298 K in solutions typically containing 50 μM apo-PHD2, 400 μM Zn(II), 50 μM 1,2,3,4-[^13C]-2OG or [^13C]-labeled CODD (uniformly [^13C]-labeled at proline-564) and 400 μM competitor (except unlabeled CODD competitor used at 800 μM). Selective irradiation was applied at 30.5 ppm for [^13C]-2OG and 24.25 ppm for [^13C]-labeled CODD. Percentage displacement was calculated according to equation: (I−I0)/(Iblank−I0) where I 0 is the intensity of the reporter in the presence of protein but without inhibitor, I is the intensity of the reporter in the presence of protein and inhibitor, and I blank is the intensity of the reporter without protein or inhibitor.
The results reveal that the previously described inhibitor IOX2 displaces 2OG from PHD2 (S3A Fig), consistent with its predicted binding mode. […] Previous crystallographic studies have shown that the HIF substrate can still bind even when the 2OG active site is occupied by some, but not all, inhibitors.

The next test concerns U2OS. Briefly: Quantitative HIF1α MSD immunoassay, U2OS. Format: cell-based. The settings on record: Homo sapiens, read-out: HIF1α EC50. The procedure: Cells were seeded into 96-well cell culture plates (150 μl culture volume) at approximately 60–70% confluency at least 12 h prior to the compound treatment. Half of the culture medium (75 μl/well) were removed and 75 μl/well of medium containing the desired concentrations of compounds were added into cells for 5 h. The cell medium was then removed and the cells were washed once with phosphate buffered saline (PBS), followed by the addition of lysis buffer (20 mM Tris pH 7.4, 450 mM NaCl, 1 mM EDTA, 1 mM EGTA, 0.5% Triton X-100, 1x complete protease inhibitor cocktail and 100 μM DFO). Plates were then left at 4°C with shaking. […] Plates were washed thrice with Tris Wash Buffer, added with 150 μl/well 2X Read Buffer (R92TC, Meso Scale Discovery) before being read with an MSD Sector S600 plate reader (Meso Scale Discovery). Signals generated were normalized to “lysis buffer-only” controls.
To quantify the cellular efficiency of PHD inhibition, we developed an electrochemiluminescence-based assay for the quantification of HIF1α levels using the Meso Scale Discovery (MSD, http://www.mesoscale.com) technology (HIF1α MSD assay), which is based on the capture and detection of HIF1α protein using two specific HIF1α antibodies. […]

Another test relates to RCC4 cells. Briefly: Immunoblotting of HIF1α hydroxylation in VHL-defective RCC4 cells. The class given is cell-based, human. Particulars: immunoblot. On the procedure: (§1) Human cell lines (RCC4, HeLa, Hep3B, MCF-7 and U2OS) were cultured in DMEM (D6546-500ML; Sigma Aldrich) each supplemented with 10% fetal bovine serum (F7524-500ML; Sigma Aldrich), 2 mM L-glutamine (G7513- 100ML; Sigma Aldrich), 50 units/ml of penicillin, and 50 μg/ml of streptomycin (P0781-100ML; Sigma Aldrich). The RCC4 cell line was a gift from C.H.C.M. Buys (University of Groningen, [2]), the HeLa and Hep3B cell lines were from the European Collection of Cell Cultures (ECACC), the MCF-7 cell line was from the American Type Culture Collection (ATCC) and the U2OS cell line was a gift from S.Galey (ICRF Clare Hall Laboratories, United Kingdom). Cells were treated either with DMSO (control) or compounds (dissolved in DMSO) and added directly into the cell culture medium to the desired final concentration for 4–5 h as previously described.
(§2) Cells were extracted using urea/SDS buffer (6.7 M urea, 10 mM Tris-HCl pH 6.8, 10% glycerol and 1% SDS) and processed for immunoblotting as described. The following primary antibodies were used for immunoblotting: mouse monoclonal HIF1α antibody clone 54 (610958, BD Transduction Laboratories, 1:1000), rabbit polyclonal HIF1α hydroxy-Pro402 antibody (07–1585, Millipore, 1:1000), rabbit monoclonal HIF1α hydroxy-Pro564 antibody clone D43B5 (3434S, Cell Signaling, 1:500), mouse monoclonal HIF1α hydroxy-Asn803 antibody (a kind gift from Dr M. K. Lee, Republic of Korea, 1:4000), mouse monoclonal PHD2 antibody clone 76a (1:10), mouse monoclonal FIH antibody clone 162c (1:200) and β-actin/HRP (clone AC15, Abcam). HRP-conjugated swine polyclonal anti-rabbit IgG (P0399, Dako), and goat polyclonal anti-mouse IgG (P0447, Dako) were used as secondary antibodies.
(§3) In this cell line, the extent of the differential HIF1α prolyl hydroxylation at the N-terminal and C-terminal oxygen-dependent degradation domains (HyPro402 and HyPro564, respectively), as well as HIF1α asparaginyl hydroxylation at the C-terminal transactivation domain (HyAsn803) can be interrogated by immunoblotting using hydroxylation specific antibodies.

The next test concerns HeLa cells. The test can be described thus: Immunoblotting of HIF1α induction in HeLa cells. Format: cell-based, human. Particulars: VHL-competent HeLa cells, immunoblot. On the procedure: as §1, §2, §3
On the technique in general: A western blot detects proteins with antibodies after separation by electrophoresis.

In another test the target is JMJD3 (KDM6B) (Homo sapiens, UniProt O15054). Briefly: KDM AlphaScreen assay, JMJD3.
JMJD3 (KDM6B), sequence (O15054 whole entry): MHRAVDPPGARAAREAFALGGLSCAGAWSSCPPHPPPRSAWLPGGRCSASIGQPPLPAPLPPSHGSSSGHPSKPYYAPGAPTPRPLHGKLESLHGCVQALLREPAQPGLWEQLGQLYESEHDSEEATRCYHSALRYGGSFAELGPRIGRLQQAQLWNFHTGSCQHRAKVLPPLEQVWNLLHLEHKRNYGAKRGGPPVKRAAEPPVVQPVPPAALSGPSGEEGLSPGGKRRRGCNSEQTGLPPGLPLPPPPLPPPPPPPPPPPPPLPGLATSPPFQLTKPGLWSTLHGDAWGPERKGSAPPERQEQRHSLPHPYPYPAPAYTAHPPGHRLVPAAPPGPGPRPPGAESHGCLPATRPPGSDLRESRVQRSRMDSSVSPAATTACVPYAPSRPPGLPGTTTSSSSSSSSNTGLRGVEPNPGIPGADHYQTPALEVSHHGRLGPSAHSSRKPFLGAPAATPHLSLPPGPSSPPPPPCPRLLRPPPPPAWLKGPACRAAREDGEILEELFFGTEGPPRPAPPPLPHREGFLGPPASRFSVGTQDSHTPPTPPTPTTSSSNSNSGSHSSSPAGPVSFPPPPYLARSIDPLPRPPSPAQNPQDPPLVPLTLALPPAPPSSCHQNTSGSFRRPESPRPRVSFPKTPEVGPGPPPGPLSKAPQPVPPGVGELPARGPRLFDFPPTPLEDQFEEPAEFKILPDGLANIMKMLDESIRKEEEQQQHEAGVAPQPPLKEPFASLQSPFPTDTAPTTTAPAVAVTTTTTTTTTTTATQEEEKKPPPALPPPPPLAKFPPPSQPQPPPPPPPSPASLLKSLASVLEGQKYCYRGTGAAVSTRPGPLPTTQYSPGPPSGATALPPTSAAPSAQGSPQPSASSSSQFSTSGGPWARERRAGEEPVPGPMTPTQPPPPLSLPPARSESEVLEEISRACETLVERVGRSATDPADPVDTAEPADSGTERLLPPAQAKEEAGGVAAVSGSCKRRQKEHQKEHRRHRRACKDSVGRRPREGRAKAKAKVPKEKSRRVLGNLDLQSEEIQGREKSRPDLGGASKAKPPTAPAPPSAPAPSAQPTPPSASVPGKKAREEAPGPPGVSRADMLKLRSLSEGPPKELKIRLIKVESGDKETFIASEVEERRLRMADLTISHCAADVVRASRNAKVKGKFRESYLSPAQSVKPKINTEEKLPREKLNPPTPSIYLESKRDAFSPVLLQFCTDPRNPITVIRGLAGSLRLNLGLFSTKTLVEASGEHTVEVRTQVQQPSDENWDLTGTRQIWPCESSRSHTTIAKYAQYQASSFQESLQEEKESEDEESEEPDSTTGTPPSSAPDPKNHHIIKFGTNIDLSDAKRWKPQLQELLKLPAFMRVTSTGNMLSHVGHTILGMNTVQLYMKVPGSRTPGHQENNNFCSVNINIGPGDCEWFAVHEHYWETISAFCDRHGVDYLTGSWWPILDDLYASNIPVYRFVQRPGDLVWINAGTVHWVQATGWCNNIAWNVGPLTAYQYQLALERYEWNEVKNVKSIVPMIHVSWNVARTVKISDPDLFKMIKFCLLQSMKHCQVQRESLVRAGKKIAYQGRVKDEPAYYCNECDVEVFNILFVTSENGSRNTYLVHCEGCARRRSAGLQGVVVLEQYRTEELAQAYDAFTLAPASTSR

PHD2, sequence (Q9GZT9 whole entry): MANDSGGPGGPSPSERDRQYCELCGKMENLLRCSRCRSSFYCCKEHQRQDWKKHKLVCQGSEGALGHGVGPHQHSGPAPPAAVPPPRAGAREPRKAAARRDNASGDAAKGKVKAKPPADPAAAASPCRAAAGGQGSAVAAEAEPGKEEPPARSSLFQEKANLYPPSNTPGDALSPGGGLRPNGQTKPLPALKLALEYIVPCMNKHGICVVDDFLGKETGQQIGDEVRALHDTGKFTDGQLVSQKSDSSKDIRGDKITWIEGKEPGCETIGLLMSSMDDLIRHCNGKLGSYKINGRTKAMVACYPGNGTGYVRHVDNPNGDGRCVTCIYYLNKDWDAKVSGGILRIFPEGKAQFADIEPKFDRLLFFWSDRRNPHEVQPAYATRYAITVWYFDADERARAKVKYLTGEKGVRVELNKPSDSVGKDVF
Description for JMJD3 (KDM6B): Inhibition assays for PHD2 (AlphaScreen) [9], the KDMs (AlphaScreen) [17], BBOX [18] and FTO [19] were carried out as previously described. […] IC50 values were calculated using nonlinear regression with normalized dose-response fit using GraphPad Prism 5.

With `O=C(O)CNC(=O)c1c(O)c2ccccc2n(Cc2ccccc2)c1=O` [IOX2], at PHD2, the “displacement of [13C]-2OG from PHD2” value was “displaces 2OG” and the “displacement of [13C]-CODD from PHD2” value was “not displaced”. Further, the EC50 in the test with U2OS (5 h treatment, MSD assay) stood at 49.5 µM.
For the compound `CC(C)(C)OC(=O)c1ccc(-n2[nH]cc(-n3ccnn3)c2=O)nc1` [IOX4, t-Butyl 6-(5-oxo-4-(1H-1,2,3-triazol-1-yl)-2,5-dihydro-1H-pyrazol-1-yl)nicotinate], on PHD2, the “displacement of [13C]-2OG from PHD2” value was “displaces 2OG” and the “displacement of [13C]-CODD from PHD2” value is “remained bound”. Besides, the “HIF1α prolyl-hydroxylation (HyPro402, HyPro564)” value in the test on RCC4 cells is “block prolyl-hydroxylation of HIF1α at both NODD (HyPro402) and CODD (HyPro564)”. The “HIF1α asparaginyl-hydroxylation (HyAsn803)” value in the test on RCC4 cells (50 μM) is on record as “some apparent inhibition”. Moreover, in the test with HeLa cells, the HIF1α induction entry is on record as “induced HIF1α” and the “concentration at which activity (HIF1α induction) observed” value is not below 1 µM. Moreover, in the test on U2OS (5 h), the half-maximal effective concentration (EC50) is 5.6 µM. Besides, the IC50 against JMJD3 (KDM6B) is 1.4 µM.
Regarding `O=C(O)c1ccc(-n2[nH]cc(-n3ccnn3)c2=O)nc1` [compound 1, 6-(5-oxo-4-(1H-1,2,3-triazol-1-yl)-2,5-dihydro-1H-pyrazol-1-yl)pyridine-3-carbocylic acid hydrochloride], the “HIF1α prolyl-hydroxylation (HyPro402, HyPro564)” value with RCC4 cells was “block prolyl-hydroxylation of HIF1α at both NODD (HyPro402) and CODD (HyPro564)”. Further, the HIF1α induction result with HeLa cells is given as “induced HIF1α”. At JMJD3 (KDM6B), this compound displayed an IC50 of more than 20 µM.

Source of the values: publication PMC4492579, “Potent and Selective Triazole-Based Inhibitors of the Hypoxia-Inducible Factor Prolyl-Hydroxylases with Activity in the Murine Brain” (PLoS ONE, 2015).
